According to US20240262795A1, “PYRAZINE COMPOUNDS AS INHIBITORS OF FLT3” (Biomea Fusion, Inc., priority 2021, published 2024):

Key:
Type in all cases: cell-based, human
K-562 = experiment: Proliferation inhibition, CellTiter-Glo, K-562; settings: Homo sapiens, K562, 96 h; K-562 cells, IC50 (4 days), CellTiter-Glo; read-out: K-562 IC50
Description: (§1) The proliferation inhibitory effect was investigated in human AML cell lines MOLM-13 (AddexBio: C0003003) and MV-4-11 (ATCC: CRL-9591), and CML cell line […] (ATCC: CRL-3343). Molm-13 is heterozygous for FLT3-ITD mutation, while MV4-11 is homozygous for FLT3-ITD (Quentmeier H, et al., Leukemia. 17(1):120-4). […] Cells were maintained in RPMI-1640 medium (ThermoFisher catalog no. 61870036) supplemented with 10% of Heat Inactivated FBS (ThermoFisher catalog no. A31605) and 1% Pen-Strep (ThermoFisher catalog no. 10378016) and cultured at 37° C. in a humidified incubator with 5% CO2. Cell lines were grown by […], and the cells were maintained in a range 70%-80% confluency.
(§2) ATP is present in all metabolically active cells and is considered as a marker for cell viability and proliferation. Metabolic cell activity was determined using the CellTiter-Glo kit (Promega catalog no. G7572), an ATP monitoring system based on the production of luminescence by the reaction of ATP with added UltraGlo® recombinant luciferase (Kawano et al., 2016, PLOS One, 8; 11(7):e0158888), according to the supplier's experimental recommendations. The assay was based on a 96 well plate format.
(§3) Test compounds were dissolved at 10 mM in DMSO (Sigma catalog no. D8418; purity≥99.9%) and stored at −20° C. Eight concentrations of test compound were assessed in duplicate in an individual test occasion in parallel in the selected cell lines. Gilteratinib and FF-10101 were used as reference compounds and tested in duplicate at eight concentrations. 100% of proliferation is represented by the untreated cells (0.2% DMSO).
(§4) On the day of the experiment, cells were quantified with the cell viability analyzer NucleoCounter (Chemometec NC-200) and diluted with fresh medium to obtain the cell density of about 10,000 cells per 200 μL medium. 200 μL of cell suspension were added into wells in the 96 well plate.
(§5) After 2 hours from seeding cells, compounds at desired concentrations were added using a D300e compound dispenser (Life Sciences Tecan D300) with shaking between each compound dispensed. Assay plates were incubated at 37° C. in a humidified incubator with 5% CO2.
(§6) On day 4 (˜96 hrs after compound addition) assay plates were equilibrated at room temperature for approximately 15 min, and then 40 μL/well of the Promega CellTiterGlo® reagent was added. Contents were mixed for 5 min on an orbital shaker to promote cell lysis, and then incubated at room temperature for an additional 10 min in the dark to stabilize the luminescent signal. Luminescence was read by using a GloMlax GM300 plate reader (Promega) using the luminescence for 96 well plate standard protocol.
(§7) Results were analyzed by GraphPad (Prism) and IC50 values were calculated by non-linear regression using four parameter-logistic equation.

MOLM-13 = experiment: Proliferation inhibition, CellTiter-Glo, MOLM-13; settings: Homo sapiens, 96 h; MOLM-13 cells, IC50 (4 days), CellTiter-Glo; read-out: MOLM-13 IC50
Description: as §1, §2, §3, §4, §5, §6, §7

MV-4-11 = experiment: Proliferation inhibition, CellTiter-Glo, MV-4-11; settings: Homo sapiens, MV4-11, 96 h; MV-4:11 cells, IC50 (4 days), CellTiter-Glo; read-out: MV-4:11 IC50
Description: as §1, §2, §3, §4, §5, §6, §7

Row | Structure (SMILES) | IC50 (K-562) [nM] | IC50 (MOLM-13) [nM] | IC50 (MV-4-11) [nM]
1 | CCc1nc(C(N)=O)c(Nc2cccc(CCNC(=O)[C@H](C)N(C)C(=O)/C=C/CN(C)C)n2)nc1C1CC1 [Compound 313, 5-cyclopropyl-3-[[6-[2-[[(2S)-2-[[(E)-4-(dimethylamino)but-2-enoyl]-methyl-amino]propanoyl]amino]ethyl]-2-pyridyl]amino]-6-ethyl-pyrazine-2-carboxamide] | > 500 | 100 to 500 | 10 to 100
2 | CCc1nc(C(N)=O)c(Nc2cccc(C[C@@H](C)NC(=O)[C@H](C)N(C)C(=O)/C=C/CN(C)C)c2)nc1C [Compound 314, 3-[3-[(2R)-2-[[(2S)-2-[[(E)-4-(dimethylamino)but-2-enoyl]-methyl-amino]propanoyl]amino]propyl]anilino]-6-ethyl-5-methyl-pyrazine-2-carboxamide] | > 500 | 100 to 500 | 10 to 100
3 | CCc1cc(C(N)=O)c(Nc2cccc(CCNC(=O)[C@H](C)N(C)C(=O)/C=C/CN(C)C)c2)nc1C1CC1 [Compound 316, 6-cyclopropyl-2-[3-[2-[[(2S)-2-[[(E)-4-(dimethylamino)but-2-enoyl]-methyl-amino]propanoyl]amino]ethyl]anilino]-5-ethyl-pyridine-3-carboxamide] | > 500 | 100 to 500 | 10 to 100
4 | CCc1nc(C(N)=O)c(Nc2cccc(C[C@H](C)NC(=O)[C@H](C)N(C)C(=O)/C=C/CN(C)C)c2)nc1C [Compound 317, 3-[3-[(2S)-2-[[(2S)-2-[[(E)-4-(dimethylamino)but-2-enoyl]-methyl-amino]propanoyl]amino]propyl]anilino]-6-ethyl-5-methyl-pyrazine-2-carboxamide] | > 500 | 10 to 100 | 1 to 10
5 | CCc1nc(C(N)=O)c(Nc2cccc(CCNC(=O)[C@H](C)N(C)C(=O)CCCN(C)C)c2)nc1N(C)C(C)C [Compound 318, 3-[3-[2-[[(2S)-2-[4-(dimethylamino)butanoyl-methyl-amino]propanoyl]amino]ethyl]anilino]-6-ethyl-5-[isopropyl(methyl)amino]pyrazine-2-carboxamide] | > 500 | 10 to 100 | 1 to 10
6 | Cc1cc(C(N)=O)c(Nc2cccc(CCNC(=O)[C@H](C)N(C)C(=O)/C=C/CN(C)C)c2)nc1C1CC1 [Compound 319, 6-cyclopropyl-2-[3-[2-[[(2S)-2-[[(E)-4-(dimethylamino)but-2-enoyl]-methyl-amino]propanoyl]amino]ethyl]anilino]-5-methyl-pyridine-3-carboxamide] | > 500 | 10 to 100 | 10 to 100
7 | CCc1cc(C(N)=O)c(Nc2cncc(CCNC(=O)[C@H](C)N(C)C(=O)/C=C/CN(C)C)c2)nc1C1CC1 [Compound 320, 6-cyclopropyl-2-[[5-[2-[[(2S)-2-[[(E)-4-(dimethylamino)but-2-enoyl]-methyl-amino]propanoyl]amino]ethyl]-3-pyridyl]amino]-5-ethyl-pyridine-3-carboxamide] | > 500 | 100 to 500 | 10 to 100
8 | CCc1cc(C(N)=O)c(Nc2cccc(CCNC(=O)[C@H](C)N(C)C(=O)/C=C/CN(C)C)c2)nc1N(C)C [Compound 322, (S,E)-6-(dimethylamino)-2-((3-(2-(2-(4-(dimethylamino)-N-methylbut-2-enamido)propanamido)ethyl)phenyl)amino)-5-ethylnicotinamide] | > 500 | 100 to 500 | 10 to 100
9 | CCc1nc(C(N)=O)c(Nc2cccc([C@H](C)CNC(=O)CN(C)C(=O)/C=C/CN(C)C)c2)nc1C [Compound 324, (S,E)-3-((3-(1-(2-(4-(dimethylamino)-N-methylbut-2-enamido)acetamido)propan-2-yl)phenyl)amino)-6-ethyl-5-methylpyrazine-2-carboxamide] | > 500 | 100 to 500 | 10 to 100
10 | CCc1nc(C(N)=O)c(Nc2cccc([C@H](C)CNC(=O)[C@H](C)N(C)C(=O)/C=C/CN(C)C)c2)nc1C [Compound 325, 3-[3-[(1S)-2-[[(2S)-2-[[(E)-4-(dimethylamino)but-2-enoyl]-methyl-amino]propanoyl]amino]-1-methyl-ethyl]anilino]-6-ethyl-5-methyl-pyrazine-2-carboxamide] | > 500 | 100 to 500 | 100 to 500

The next lines start with the values.

Row | IC50 (K-562) [nM] | IC50 (MOLM-13) [nM] | IC50 (MV-4-11) [nM] | Structure (SMILES)
11 | > 500 | 1 to 10 | 1 to 10 | [2H]C([2H])([2H])N(C/C=C/C(=O)N(C)[C@@H](C)C(=O)NCCc1cccc(Nc2nc(C3CC3)c(C)nc2C(N)=O)c1)C([2H])([2H])[2H] [Compound 248, (S,E)-3-((3-(2-(2-(4-(bis(methyl-d3)amino)-N-methylbut-2-enamido)propanamido)ethyl)phenyl)amino)-5-cyclopropyl-6-methylpyrazine-2-carboxamide]
12 | > 500 | < 1 | < 1 | [2H]C([2H])([2H])N(C/C=C/C(=O)N(C)[C@@H](C)C(=O)NCCc1cccc(Nc2nc(N(C)C(C)C)c(CC)nc2C(N)=O)c1)C([2H])([2H])[2H] [Compound 249, (S,E)-3-((3-(2-(2-(4-(bis(methyl-d3)amino)-N-methylbut-2-enamido)propanamido)ethyl)phenyl)amino)-6-ethyl-5-(isopropyl(methyl)amino)pyrazine-2-carboxamide]
13 | > 500 | 10 to 100 | 1 to 10 | Cc1nc(Nc2cc(F)cc(CCNC(=O)CN(C)C(=O)/C=C/CN(C)C)c2)c(C(N)=O)nc1C [Compound 251, 3-[3-[2-[[2-[[(E)-4-(dimethylamino)but-2-enoyl]-methyl-amino]acetyl]amino]ethyl]-5-fluoro-anilino]-5,6-dimethyl-pyrazine-2-carboxamide]
14 | > 500 | 10 to 100 | 1 to 10 | CCc1nc(Nc2cccc(CCNC(=O)[C@H](C)N(C)C(=O)/C=C/CN(C)C)c2)c(C(N)=O)nc1C [Compound 255, 3-[3-[2-[[(2S)-2-[[(E)-4-(dimethylamino)but-2-enoyl]-methyl-amino]propanoyl]amino]ethyl]anilino]-5-ethyl-6-methyl-pyrazine-2-carboxamide]
15 | > 500 | 10 to 100 | 10 to 100 | Cc1nc(Nc2cccc(CCNC(=O)CN(C)C(=O)/C=C/CN(C)C)c2)c(C(N)=O)nc1C [Compound 301, 3-[3-[2-[[2-[[(E)-4-(dimethylamino)but-2-enoyl]-methyl-amino]acetyl]amino]ethyl]anilino]-5,6-dimethyl-pyrazine-2-carboxamide]
16 | > 500 | 100 to 500 | 100 to 500 | CCc1nc(C(N)=O)c(Nc2cc(CCNC(=O)[C@H](C)N(C)C(=O)/C=C/CN(C)C)ccn2)nc1C1CC1 [Compound 304, 5-cyclopropyl-3-[[4-[2-[[(2S)-2-[[(E)-4-(dimethylamino)but-2-enoyl]-methyl-amino]propanoyl]amino]ethyl]-2-pyridyl]amino]-6-ethyl-pyrazine-2-carboxamide]
17 | > 500 | 100 to 500 | 1 to 10 | C=CC(=O)N(C)CC(=O)NCCc1cccc(Nc2nc(N(C)C(C)C)c(C)nc2C(N)=O)c1 [Compound 309, 5-[isopropyl(methyl)amino]-6-methyl-3-[3-[2-[[2-[methyl(prop-2-enoyl)amino]acetyl]amino]ethyl]anilino]pyrazine-2-carboxamide]
18 | > 500 | 100 to 500 | 10 to 100 | CCc1nc(C(N)=O)c(Nc2cccc(C[C@@H](C)NC(=O)CN(C)C(=O)/C=C/CN(C)C)c2)nc1C [Compound 311, 3-[3-[(2R)-2-[[2-[[(E)-4-(dimethylamino)but-2-enoyl]-methyl-amino]acetyl]amino]propyl]anilino]-6-ethyl-5-methyl-pyrazine-2-carboxamide]
19 | > 500 | 100 to 500 | 10 to 100 | CCc1nc(C(N)=O)c(Nc2cccc(C[C@H](C)NC(=O)CN(C)C(=O)/C=C/CN(C)C)c2)nc1C [Compound 312, 3-[3-[(2S)-2-[[2-[[(E)-4-(dimethylamino)but-2-enoyl]-methyl-amino]acetyl]amino]propyl]anilino]-6-ethyl-5-methyl-pyrazine-2-carboxamide]
